A word on the melting point: it is the temperature, or range, at which the solid turns liquid. Regarding `COc1cc2sc(C(=O)Cl)c(Cl)c2cc1OC`, the melting point lay within 191 to 199 °C.
Take `Brc1ccc2scnc2c1`: the melting point fell in the range of 104 to 106 °C.
Regarding `COc1cc(Cl)c(N2CCN(c3cccc(C(F)(F)F)c3)CC2)c(Cl)c1`, the melting point lay within 87 to 89 °C.
Take `CC1(C)Cc2c(c(N3CCOCC3)nc3sc4c(N(CCN5CCOCC5)Cc5cccnc5)ncnc4c23)CO1`: the melting point was found to be 150 °C.
As for `N#CC=C1CCN(c2ccc(N3C[C@H](CNC(=O)C(Cl)(Cl)Cl)OC3=O)cc2F)CC1`, the melting point was in the range of 142 to 144 °C.
On to `CCCCC(=O)Nc1ccc(Cl)c(-n2nc(CCCC)c(Cc3ccc(-c4ccccc4S(=O)(=O)NC(=O)c4ccccc4Cl)cc3)c2C(=O)OCC)c1`, for which the melting point is above 95 °C.
As for `COC(=O)C(C#N)(Cc1ccc(-c2cccc(C(F)(F)F)c2)cc1)C(c1ccccc1OC)c1cccc2ccccc12` (centres undefined), the melting point was 202 to 204 °C.
The figure for `CCCC1=C(C(=O)OCC)C(c2ccccc2C)c2c[nH]nc2N1` (centres undefined) is 178 °C.
Consider `O=C(O)[C@@H]1CC[C@@H](Oc2ccccc2)c2c(-c3ccc(Cl)cc3)noc2C1` (relative stereo), for which the melting point was in the range of 182 to 183 °C.
In the case of `COc1ccc(-c2nc(-c3ccc(OS(=O)(=O)O)cc3)cs2)cc1OC`, the melting point was in the range of 248 to 249 °C.
In the case of `O=C(O)C(CCc1ccccc1)CC1(C(=O)Nc2cccnc2)CCCC1` (centres undefined), the melting point lay within 80 to 85 °C.
On to `CN(C)CC(O)COc1ccc(C=CC(=O)N2CCc3c([nH]c4ccccc34)C2c2ccc3c(c2)CCO3)cc1` (centres undefined), for which the melting point was 138 °C.
The figure for `CCOC(=O)C1=C(C)Nc2nc(N3CCOCC3)nc(N3CCOCC3)c2C1c1ccccc1` (centres undefined) is 178 °C; for `O=C1c2ccccc2C(=O)N1c1cc(Cl)c(OC(F)(F)C(F)(F)Br)c(Cl)c1` it is 62 to 63.5 °C; for `O=C(NCCSCc1cccc(Br)c1)c1c(Cl)cccc1Cl` it is 74 to 76 °C.
Compound `O=[N+]([O-])N(c1ccccc1)c1ccccc1` gave a melting point of 118 °C.
In turn, `ON=C(c1cccc(F)c1)c1cccc2nc(N[C@@H]3CCc4ccccc43)ccc12` registered a melting point of 180 °C.
The result for `CCCCCCCCC1(CCn2ccnc2)SCCS1` reads 98 to 101 °C; that for `O=C1NC(=O)C(=Cc2ccc(SCCc3ccc(Cl)cc3)cc2)S1`, 215 to 225 °C; that for `CCCNc1nc(OC)ccc1[N+](=O)[O-]`, 69 to 70 °C.
For `O=C(Nc1ccc2c(c1)CCC2)c1ccccc1Cl`, the melting point was in the range of 144 to 145 °C.
Consider `O=C(c1cc(I)c[nH]1)C(Cl)(Cl)Cl`, for which the melting point is 140 °C.
The result for `CCn1c(Br)c(Br)c(C#N)c1Br` reads 108 to 110 °C; that for `Cc1scc2c1N(C(=O)CN1CCCCC1CN(C)C)c1ccccc1NC2=O` (centres undefined), 172 to 173 °C.
With `Cn1c(=O)n(Cc2cccnc2)c2ccccc21`, the melting point worked out at 90 °C.
`CCOC(=O)c1cnn(-c2ccc(OCC(C)C)c(C#N)c2)c1Cl`: the melting point worked out at 87 °C.
Compound `CCOC1CCC(=O)N1S(=O)(=O)c1ccc(O)cc1` (centres undefined) yielded a melting point of 162 to 163 °C.
`S=C(Nc1cnccc1NC1CCCCC1)NC1CCCCC1` had a melting point of 157 to 159 °C.
The result for `CC[C@H](NC(=O)OCC1c2ccccc2-c2ccccc21)[C@@H](O)C(=O)O` reads 160 to 162 °C.
In turn, `CCOC(=O)c1ccc(-c2cc3c(N[C@H](C)c4ccccc4)ncnc3[nH]2)cc1` registered a melting point of 288 to 290 °C.
Compound `O=[N+]([O-])c1cc(C(F)(F)F)ccc1S(=O)(=O)NCC(O)(Cn1cncn1)c1ccc(Cl)cc1Cl` (centres undefined) had a melting point of 97 to 105 °C.
Compound `CCCCCOC(=O)Oc1ccc(-c2ccc(C#N)cc2)cc1` registered a melting point of 50.1 to 51 °C.
Take `CC1Cc2c(cc(C(C)(C)C)c(O)c2C(C)(C)C)O1` (centres undefined): the melting point amounted to 86.8 °C.
Turning to `Cc1cnc(CNC(=O)c2c(-c3ccccc3)c(-c3ccc(F)cc3)c(/C=C\[C@@H](O)C[C@@H](O)CC(=O)OC(C)(C)C)n2C(C)C)cn1`, the melting point is 168 to 170 °C.
`CSc1ccccc1N1CCN(Cc2nc3ccccc3[nH]2)CC1`: the melting point was in the range of 214 to 216 °C.
In the case of `CN(C(=O)[C@@H](OP(c1ccccc1)c1ccccc1)C(C)(C)C)P(c1ccccc1)c1ccccc1`, the melting point lay in the range of 95 to 96 °C.
`CCCCCCCCOC(=O)CS(=O)(=O)Nc1c(C(C)C)cccc1C(C)C` displayed a melting point of 56 to 58 °C.
For the compound `O=[N+]([O-])c1ccc2[nH]cc(C3=CCN(CC4CC4)CC3)c2c1`, the melting point fell in the range of 187 to 188 °C.
`Cc1cc(C)cc(-c2cnn3c(-c4cccc(-c5nnn(Cc6cccnc6)n5)c4)ccnc23)c1` yielded a melting point of 73 °C.
The figure for `Brc1ccc2c(c1)sc1cc(Br)ccc12` is 171 to 173 °C.
For `COC(=O)CN1CCCN(c2ccc(-c3ccc(C#N)cc3)cc2)C1=O`, the melting point was in the range of 145 to 150 °C.
`CS(=O)c1ccc2c(c1)C=C(C(=O)O)C(C(F)(F)F)O2` (centres undefined) displayed a melting point of 148 to 151 °C.
Regarding `CNC1([C@@H]2CCN(c3ccc4c(=O)c(C(=O)O)cn5c4c3OC[C@@H]5C)C2)CC1`, the melting point was 227 to 229 °C.
`N#CN=C(Nc1cccnc1)Oc1ccccc1` showed a melting point of 154 to 155 °C.
Compound `CCOc1ccc(-c2ccc(S(=O)(=O)NC(C(=O)O)C3CCN(CC(C)C)CC3)s2)cc1` (centres undefined) had a melting point of 220 to 225 °C.
In turn, `CN(C)c1ccc(N=Nc2ccc(S(=O)(=O)NCc3ccc4c(c3)-c3n[nH]c(=O)c5cccc(c35)O4)cc2)cc1` registered a melting point above 300 °C.
The result for `CNc1sc(-c2cccnc2)nc1C` reads 84 to 87 °C; that for `CC(=O)N1CCC(NC(=O)N(CCCN2CCC(Cc3ccccc3)CC2)c2ccccc2)CC1`, 132 to 135 °C.
`COc1ccccc1C(=O)c1cccc(C#N)c1` came in with a melting point of 180 °C.
Take `O=S1(=O)CCN(Cc2ccc(Br)cn2)CC1`: the melting point is 129 to 131 °C.
As for `NCCCCn1cnc(-c2ccccc2)c1`, the melting point is 130 to 132 °C.
In turn, `CC=CC(=O)NCCc1ccc(S(=O)(=O)N2CCN(C3CCCCC3)C2=N)cc1` gave a melting point of 157 to 158 °C.
As to `COC(=O)Cc1ccc(OCCNC(=O)C2Cc3ccccc3N2S(=O)(=O)c2ccc(-c3cc(C(F)(F)F)ccc3Cl)cc2)cc1` (centres undefined), the melting point was 60 °C.
For the compound `CC(CN1CCCC1)N1c2ccccc2Sc2ccc(C(=O)NCc3cccc(F)c3)cc21` (racemic), the melting point was 165 °C.
In turn, `CCCCCCCCSCCCC(=O)O` yielded a melting point of 33 to 34.5 °C.
For the compound `C=C1N(c2ccc(Cl)cc2)C(=O)OC12CCN(CCC=C(c1ccc(F)cc1)c1ccc(F)cc1)CC2`, the melting point lay in the range of 186 to 188 °C.
Turning to `CN1C(=O)C2(COc3cc4c(cc32)OCCO4)c2c(NC(=O)C3CC3)cccc21` (centres undefined), the melting point fell in the range of 266 to 268 °C.
The figure for `O=Cc1c(-c2ccccc2Br)ccc2c1OCO2` is 89 to 91 °C; for `O=C(NCCCCCCOC(=O)N1CCCCC1)OC1CCN(C(=O)Oc2ccc(Oc3ccccc3)cc2)CC1` it is 92 to 93 °C.
The figure for `NS(=O)(=O)c1ccc(-n2nc(C=O)cc2-c2ccccc2)cc1` is 177 to 180 °C; for `Cc1cc(C)c(=O)n(C(C(=O)NS(=O)(=O)c2ccc(C(C)C)cc2)c2ccc3c(c2)OCO3)n1` (centres undefined) it is 105 °C; for `CC(C)(C)S(=O)(=O)CCOCCn1ccc2ncnc(Nc3ccc(Oc4cccc(C(F)(F)F)c4)c(Cl)c3)c21` it is 79.5 to 81.5 °C.
`CSc1ncnn1C[C@]1(c2ccc(F)cc2F)O[C@@H]1c1ccccc1F` (relative stereo) had a melting point of 65 to 68 °C.
For the compound `Cc1nc(-c2ccc(C(F)(F)F)cc2)sc1CSc1ccc2oc(C(=O)O)cc2c1`, the melting point lay in the range of 207 to 209 °C.
The compound `Fc1ccccc1C1CCC(=S)Nc2ccc(Cl)cc21` (centres undefined) displayed a melting point of 190 °C.
`CCCCCC(=O)c1cccc(OCc2ccc3ccccc3n2)c1` displayed a melting point of 52 to 55 °C.
Regarding `CCCc1c(OCCOc2ccc(C(=O)NCCCCc3cccnc3)cc2)ccc(C(C)=O)c1O`, the melting point was 93 °C.
Turning to `CC(C)(C1CCCCC1)C(NC(=O)c1ccc(Cl)cc1)NC(=NC#N)Nc1cccnc1` (centres undefined), the melting point was 181 to 183 °C.
The result for `CNC(CSCC(=O)c1ccc2[nH]c3ncc(Cl)cc3c2c1)NC` reads 176 to 177 °C; that for `CCOc1cc2ncc(C#N)c(Nc3ccc(F)c(Cl)c3)c2cc1OCC`, 194 to 198 °C.
The compound `CC(=O)/C=C/c1ncn2c1CN(C)C(=O)c1c(Cl)cccc1-2` gave a melting point of 235 to 237 °C.
As to `CCCNC(=O)CCCc1ccc2c(c1)c(Cc1ccc(C(=O)O)cc1OC)cn2CCC`, the melting point lay within 143 to 144 °C.
`O=C(c1ccc(Oc2ccc(C(F)(F)F)cc2Cl)cc1)C(Cl)Cl` displayed a melting point of 41 to 42 °C.
For `CC(=O)Nc1nc(Cl)c2ncn([C@@H]3C[C@H](OC(C)=O)[C@@H](O)[C@H]3O)c2n1` (racemic), the melting point amounted to 198 °C.
In turn, `COc1ccc(C(c2ccc(OC)cc2)(c2ccc(OC)cc2)N2CCCCC2)cc1` gave a melting point of 73 to 75 °C.
Turning to `CC(C)(C)OC(=O)C(CC(=O)O)N1C(=O)C2NC(C)(C)SC21` (centres undefined), the melting point lay in the range of 137 to 138 °C.
The compound `Cc1ccc(Nc2c(N3CCCC3)cc(C(=O)O)cc2S(N)(=O)=O)cc1` came in with a melting point of 188 to 191 °C.
Compound `O=S(Cc1nnc(-c2ccc3c(c2)CCO3)o1)c1cccc(F)c1` (centres undefined) returned a melting point of 131 to 132 °C.
With `COc1ccc(Nc2ccc(Nc3ncnc4cc(-c5cccs5)sc34)cc2)cc1`, the melting point was in the range of 231 to 240 °C.
In turn, `CCOc1nc(-c2cccc(Cl)c2)c2cc(C(O)(c3ccc(I)cc3)c3cncn3C)ccc2n1` (centres undefined) had a melting point of 135 °C.
In the case of `O=C(Nc1ccc2[nH]ncc2c1)O[C@H](c1ccc(Cl)c(Cl)c1)[C@H]1CCCCN1`, the melting point was 210 °C.
`CS(=O)(=O)c1cc(C(=O)N=C(N)N)cc(-n2cccc2)c1` showed a melting point of 235 to 236 °C.
With `C=CC12CCC3(C)C(F)C(O)CC3C1CCc1cc(O)ccc12` (centres undefined), the melting point lay in the range of 94 to 98 °C.
The result for `COc1ccc(S(=O)(=O)Nc2cccnc2Nc2ccc(Oc3ccccc3)cc2)cc1` reads 174 to 176 °C.

For the origin of these results see a melting point compilation (Tetko et al.; mined from patent text by program, amines drawn as free bases though some values may be those of a salt).
